{"source": "patent US20090005363A1", "about": "“Organic Compounds” (priority 2005, published 2009)", "note": "Structures can show the parent of a compound that is named as a salt."}
{"biological_target": "mGluR5 (Homo sapiens, UniProt P41594)", "sequence (P41594 21-1180 isoform P41594-2 limits assumed)": "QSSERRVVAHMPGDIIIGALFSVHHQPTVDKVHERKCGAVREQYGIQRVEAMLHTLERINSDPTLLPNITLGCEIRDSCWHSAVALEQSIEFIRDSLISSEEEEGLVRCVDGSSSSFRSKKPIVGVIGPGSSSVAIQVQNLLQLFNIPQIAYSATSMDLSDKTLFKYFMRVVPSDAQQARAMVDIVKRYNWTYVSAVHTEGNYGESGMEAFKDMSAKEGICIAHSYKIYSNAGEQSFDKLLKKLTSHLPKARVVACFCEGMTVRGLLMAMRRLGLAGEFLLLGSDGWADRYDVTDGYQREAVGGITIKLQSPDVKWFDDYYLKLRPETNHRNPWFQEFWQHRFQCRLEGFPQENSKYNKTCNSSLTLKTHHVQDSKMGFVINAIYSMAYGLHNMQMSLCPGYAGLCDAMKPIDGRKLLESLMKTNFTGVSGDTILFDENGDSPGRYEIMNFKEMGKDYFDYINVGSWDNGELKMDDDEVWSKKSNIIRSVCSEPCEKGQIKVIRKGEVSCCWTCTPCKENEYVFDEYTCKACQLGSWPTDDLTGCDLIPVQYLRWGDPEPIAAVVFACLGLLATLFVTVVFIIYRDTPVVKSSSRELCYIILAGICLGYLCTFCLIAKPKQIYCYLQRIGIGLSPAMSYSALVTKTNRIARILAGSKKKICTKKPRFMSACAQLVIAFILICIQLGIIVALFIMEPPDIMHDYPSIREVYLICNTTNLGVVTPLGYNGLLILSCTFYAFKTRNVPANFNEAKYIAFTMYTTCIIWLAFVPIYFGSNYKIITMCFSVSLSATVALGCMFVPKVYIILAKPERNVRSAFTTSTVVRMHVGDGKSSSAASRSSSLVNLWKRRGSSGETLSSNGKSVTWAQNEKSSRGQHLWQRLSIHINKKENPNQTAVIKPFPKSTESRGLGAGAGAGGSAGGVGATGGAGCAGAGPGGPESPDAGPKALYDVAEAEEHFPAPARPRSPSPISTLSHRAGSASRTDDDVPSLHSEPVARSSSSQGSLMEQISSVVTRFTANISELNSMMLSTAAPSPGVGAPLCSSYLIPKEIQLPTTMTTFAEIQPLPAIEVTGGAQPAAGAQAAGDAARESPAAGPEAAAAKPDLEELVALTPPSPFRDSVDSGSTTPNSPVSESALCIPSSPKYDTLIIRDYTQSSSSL", "test": "inhibition of the glutamate induced elevation of intracellular Ca2+ concentration", "conditions": "inhibition of glutamate induced elevation of intracellular Ca2+ concentration at 10 μM", "units": {"mGluR5 Activity inh. at 10 μM [%]": "%"}, "excerpt": "This can be determined in vitro for example at recombinant human metabotropic glutamate receptors, especially PLC-coupled subtypes thereof such as mGluR5, using different procedures like, for example, measurement of the inhibition of the agonist induced elevation of intracellular Ca^2+ concentration in accordance with L. P. Daggett et al., Neuropharm."}
{"smiles": "Cc1ccc(Nc2ccc(C(=O)N3CCCC(C)C3)cn2)cc1", "note": "(centres unmarked) [Compound 1.13]", "mGluR5 Activity inh. at 10 μM [%]": 96}
{"biological_target": "mGluR5 (Homo sapiens, UniProt P41594)", "test": "inhibition of the glutamate induced elevation of intracellular Ca2+ concentration", "conditions": "read-out: mGluR5 Activity inh. at 10 μM [%]", "units": {"inhibition at 10 µM": "%"}}
{"smiles": "CC[C@@H]1CCCCN1C(=O)c1cnc(Nc2ccc(C(F)(F)F)nc2)c(Cl)c1", "note": "[Compound 2.23, [5-Chloro-6-(6-trifluoromethyl-pyridin-3-ylamino)-pyridin-3-yl]-((R)-2-ethyl-piperidin-1-yl)-methanone]", "inhibition at 10 µM": 100}
{"smiles": "Cc1ccc(Nc2ncc(C(=O)N3CCCC[C@@H]3C)cc2Cl)cn1", "note": "[Compound 4.23, [5-Chloro-6-(6-methyl-pyridin-3-ylamino)-pyridin-3-yl]-((S)-2-methyl-piperidin-1-yl)-methanone]", "inhibition at 10 µM": 95}
{"smiles": "Cc1ncc(Nc2ncc(C(=O)N3CCCC(C)C3)cc2Cl)cn1", "note": "(centres unmarked) [Compound 2.16, [5-Chloro-6-(2-methyl-pyrimidin-5-ylamino)-pyridin-3-yl]-(3-methyl-piperidin-1-yl)-methanone]", "inhibition at 10 µM": 97}
{"smiles": "CC1CCCN(C(=O)c2cnc(Nc3ccc(Cl)cc3)nc2)C1", "note": "(racemic) [Compound 5.5, rac-[2-(4-Chloro-phenylamino)-pyrimidin-5-yl]-(3-methyl-piperidin-1-yl)-methanone]", "inhibition at 10 µM": 96}
{"smiles": "Cc1ccc(Nc2ncc(C(=O)N3CCCCC3C(F)C(C)F)cc2Cl)cn1", "note": "(centres unmarked) [Compound 4.63, [5-Chloro-6-(6-methyl-pyridin-3-ylamino)-pyridin-3-yl]-[2-(1,2-difluoro-propyl)-piperidin-1-yl]-methanone]", "inhibition at 10 µM": 100}
{"smiles": "CCCC1CCCCCN1C(=O)c1cnc(Nc2ccc(C)nc2)c(Cl)c1", "note": "(centres unmarked) [Compound 4.76, [5-Chloro-6-(6-methyl-pyridin-3-ylamino)-pyridin-3-yl]-(2-propyl-azepan-1-yl)-methanone]", "inhibition at 10 µM": 92}
{"smiles": "CCOc1cc(C(=O)N2CCCCCC2)cnc1Nc1ccc(Cl)cc1", "note": "[Compound 6.5, Azepan-1-yl-[6-(4-chloro-phenylamino)-5-ethoxy-pyridin-3-yl]-methanone]", "inhibition at 10 µM": 33}
{"smiles": "O=C(c1cnc(Nc2ccc(Cl)cc2)c(Cl)c1)N1CC2CCC1C2", "note": "(racemic) [Compound 2.4, rac-(2-Aza-bicyclo[2.2.1]hept-2-yl)-[5-chloro-6-(4-chloro-phenylamino)-pyridin-3-yl]-methanone]", "inhibition at 10 µM": 100}
{"smiles": "Cc1ccc(Nc2ncc(C(=O)N3CCCCC3CC(C)F)cc2Cl)cn1", "note": "(centres unmarked) [Compound 4.64, [5-Chloro-6-(6-methyl-pyridin-3-ylamino)-pyridin-3-yl]-[2-(2-fluoro-propyl)-piperidin-1-yl]-methanone]", "inhibition at 10 µM": 99}
{"smiles": "CCN(CC)C(=O)c1ccc(Nc2ccc(OC)cc2)nc1", "note": "[Compound 1.3, N,N-Diethyl-6-(4-methoxy-phenylamino)-nicotinamide hydrochloride]", "inhibition at 10 µM": 75}
{"smiles": "O=C(c1ccc(Nc2ccc(Cl)cc2)nc1)N1CC2CCC1C2", "note": "(racemic) [Compound 4.12, rac-(2-Aza-bicyclo[2.2.1]hept-2-yl)-[6-(4-chloro-phenylamino)-pyridin-3-yl]-methanone]", "inhibition at 10 µM": 96}
{"smiles": "Cc1ccc(Nc2ncc(C(=O)N3CCCCC3c3cccnc3)cc2Cl)cn1", "note": "(centres unmarked) [Compound 4.43, [5-Chloro-6-(6-methyl-pyridin-3-ylamino)-pyridin-3-yl]-(3,4,5,6-tetrahydro-2H-[2,3′]bipyridinyl-1-yl)-methanone]", "inhibition at 10 µM": 100}
{"smiles": "COc1ccc(Nc2ccc(C(=O)N3CCCCC3C)cn2)cc1", "note": "(centres unmarked) [Compound 1.11, [6-(4-Methoxy-phenylamino)-pyridin-3-yl]-(2-methyl-piperidin-1-yl)-methanone hydrochloride]", "inhibition at 10 µM": 71}
{"smiles": "CCCC1OCCCN1C(=O)c1cnc(Nc2ccc(C)nc2)c(Cl)c1", "note": "(centres unmarked) [Compound 4.68, [5-Chloro-6-(6-methyl-pyridin-3-ylamino)-pyridin-3-yl]-(2-propyl-[1,3]oxazinan-3-yl)-methanone]", "inhibition at 10 µM": 99}
{"smiles": "O=C(c1cnc(Nc2ccc(Cl)cc2)nc1)N1CCCCCC1", "note": "[Compound 5.3, Azepan-1-yl-[2-(4-chloro-phenylamino)-pyrimidin-5-yl]-methanone]", "inhibition at 10 µM": 87}
{"smiles": "CC[C@@H]1CCCCN1C(=O)c1cnc(Nc2ccc(C)nc2)c(Cl)c1", "note": "[Compound 4.18, [5-Chloro-6-(6-methyl-pyridin-3-ylamino)-pyridin-3-yl]-((R)-2-ethyl-piperidin-1-yl)-methanone]", "inhibition at 10 µM": 97}
{"smiles": "O=C(c1ccc(Nc2ccc(Cl)cc2)nc1)N1C2CCC1CC(O)C2", "note": "(centres unmarked) [Compound 4.11, [6-(4-Chloro-phenylamino)-pyridin-3-yl]-(3-hydroxy-8-aza-bicyclo[3.2.1]oct-8-yl)-methanone]", "inhibition at 10 µM": 51}
{"smiles": "O=C(c1ccc(Nc2ccc(Cl)c(F)c2)nc1)N1CCCCC1", "note": "[Compound 1.5, [6-(4-Chloro-3-fluoro-phenylamino)-pyridin-3-yl]-piperidin-1-yl-methanone]", "inhibition at 10 µM": 90}
{"smiles": "Cc1ccc(Oc2ncc(C(=O)N3CCCCCC3)cc2Cl)cn1", "note": "[Compound 3.3, Azepan-1-yl-[5-chloro-6-(6-methyl-pyridin-3-yloxy)-pyridin-3-yl]-methanone]", "inhibition at 10 µM": 90}
{"smiles": "CCCCC1CCCCN1C(=O)c1cnc(Nc2ccc(C)nc2)c(Cl)c1", "note": "(centres unmarked) [Compound 4.38, (2-Butyl-piperidin-1-yl)-[5-chloro-6(6-methyl-pyridin-3-ylamino)-pyridin-3-yl]-methanone]", "inhibition at 10 µM": 98}
{"smiles": "Cc1ccc(Nc2ncc(C(=O)N3CCC[C@@H](C)[C@H]3C)cc2Cl)cn1", "note": "[Compound 4.22, [5-Chloro-6-(6-methyl-pyridin-3-ylamino)-pyridin-3-yl]-((2R,3R)-2,3-dimethyl-piperidin-1-yl)-methanone]", "inhibition at 10 µM": 98}
{"smiles": "CCCC1CCCCN1C(=O)c1cnc(Nc2ccc(C)nc2)c(Cl)c1", "note": "(centres unmarked) [Compound 4.34, [5-Chloro-6-(6-methyl-pyridin-3-ylamino)-pyridin-3-yl]-(2-propyl-piperidin-1-yl)-methanone]", "inhibition at 10 µM": 98}
{"smiles": "Cc1ncc(Nc2ncc(C(=O)N3CCCCCC3)cc2Cl)cn1", "note": "[Compound 2.18, Azepan-1-yl-[5-chloro-6-(2-methyl-pyrimidin-5-ylamino)-pyridin-3-yl]-methanone]", "inhibition at 10 µM": 100}
{"smiles": "O=C(c1ccc(Nc2ccc(OC(F)(F)F)cc2)nc1)N1CCCCC1", "note": "[Compound 1.8, Piperidin-1-yl-[6-(4-trifluoromethoxy-phenylamino)-pyridin-3-yl]-methanone]", "inhibition at 10 µM": 54}
{"smiles": "CCOc1ccc(Nc2ncc(C(=O)N3CCCCC3)cc2Cl)cn1", "note": "[Compound 2.9, [5-Chloro-6-(6-ethoxy-pyridin-3-ylamino)-pyridin-3-yl]-piperidin-1-yl-methanone]", "inhibition at 10 µM": 100}
{"smiles": "O=C(c1ccc(Nc2ccc(Cl)cc2)nc1)N1CCOCC1", "note": "[Compound 1.17, [6-(4-Chloro-phenylamino)-pyridin-3-yl]-morpholin-4-yl-methanone hydrochloride]", "inhibition at 10 µM": 83}
{"smiles": "O=C(c1cnc(Nc2ccc(Cl)cc2)c(Cl)c1)N1CCSCC1", "note": "[Compound 2.5, [5-Chloro-6-(4-chloro-phenylamino)-pyridin-3-yl]-thiomorpholin-4-yl-methanone]", "inhibition at 10 µM": 97}
{"smiles": "COc1cc(C(=O)N2CCCCC2)cnc1Nc1ccc(Cl)cc1", "note": "[Compound 6.3, [6-(4-Chloro-phenylamino)-5-methoxy-pyridin-3-yl]-piperidin-1-yl-methanone]", "inhibition at 10 µM": 95}
{"smiles": "O=C(c1cnc(Nc2ccc(Cl)cc2)c(Cl)c1)N1CCCCCC1", "note": "[Compound 5.1, Azepan-1-yl-[5-chloro-6-(4-chloro-phenylamino)-pyridin-3-yl]-methanone]", "inhibition at 10 µM": 98}
{"smiles": "Cc1ccc(Nc2ncc(C(=O)N3CCCC3c3ccccn3)cc2Cl)cn1", "note": "(centres unmarked) [Compound 4.73, [5-Chloro-6-(6-methyl-pyridin-3-ylamino)-pyridin-3-yl]-(2-pyridin-2-yl-pyrrolidin-1-yl)-methanone]", "inhibition at 10 µM": 72}
{"smiles": "O=C(c1ccc(Nc2cccnc2)nc1)N1CCCCCC1", "note": "[Compound 2.2, Azepan-1-yl-[6-(pyridin-3-ylamino)-pyridin-3-yl]-methanone]", "inhibition at 10 µM": 46}
{"smiles": "COc1cc(C(=O)N2CCCCC2)cnc1Nc1ccc(C)nc1", "note": "[Compound 6.4, [5-Methoxy-6-(6-methyl-pyridin-3-ylamino)-pyridin-3-yl]-piperidin-1-yl-methanone]", "inhibition at 10 µM": 98}
{"smiles": "CC1CCCCN1C(=O)c1ccc(Nc2ccc(Cl)cc2)nc1", "note": "(centres unmarked) [Compound 1.9, [6-(4-Chloro-phenylamino)-pyridin-3-yl]-(2-methyl-piperidin-1-yl)-methanone hydrochloride]", "inhibition at 10 µM": 97}
{"smiles": "CCC1CCCCN1C(=O)c1cnc(Nc2ccc(C)nc2)c(Cl)c1", "note": "(centres unmarked) [Compound 4.17, [5-Chloro-6-(6-methyl-pyridin-3-ylamino)-pyridin-3-yl]-(2-ethyl-piperidin-1-yl)-methanone]", "inhibition at 10 µM": 98}
{"smiles": "CCO[C@@H]1CCCN1C(=O)c1cnc(Nc2ccc(C)nc2)c(Cl)c1", "note": "[Compound 4.74, [5-Chloro-6-(6-methyl-pyridin-3-ylamino)-pyridin-3-yl]-((R)-2-ethoxy-pyrrolidin-1-yl)-methanone]", "inhibition at 10 µM": 92}
{"smiles": "Cc1ncc(Nc2ncc(C(=O)N3CCCCC3)cc2Cl)cn1", "note": "[Compound 2.17, [5-Chloro-6-(2-methyl-pyrimidin-5-ylamino)-pyridin-3-yl]-piperidin-1-yl-methanone]", "inhibition at 10 µM": 97}
{"smiles": "Cc1ccc(Nc2ncc(C(=O)N3CCCC[C@H]3C(C)C)cc2Cl)cn1", "note": "[Compound 4.30, [5-Chloro-6-(6-methyl-pyridin-3-ylamino)-pyridin-3-yl]-((S)-2-isopropyl-piperidin-1-yl)-methanone]", "inhibition at 10 µM": 96}
{"smiles": "Cc1ccc(Nc2ncc(C(=O)N3CCSCC3)cc2Cl)cn1", "note": "[Compound 2.15, [5-Chloro-6-(6-methyl-pyridin-3-ylamino)-pyridin-3-yl]-thiomorpholin-4-yl-methanone]", "inhibition at 10 µM": 100}
{"smiles": "CC1CCCN(C(=O)c2ccc(Nc3ccccc3)nc2)C1", "note": "(centres unmarked) [Compound 1.15, (3-Methyl-piperidin-1-yl)-(6-phenylamino-pyridin-3-yl)-methanone hydrochloride]", "inhibition at 10 µM": 88}
{"smiles": "Cc1ccc(Oc2ncc(C(=O)N3CCCC(C)C3)cc2Cl)cn1", "note": "(racemic) [Compound 3.1, rac-[5-Chloro-6-(6-methyl-pyridin-3-yloxy)-pyridin-3-yl]-(3-methyl-piperidin-1-yl)-methanone]", "inhibition at 10 µM": 94}
